Experimental data taken from PubChem BioAssay AID248 (DTP/NCI, 2004).
Toxic doses and inconclusive results are not listed.

Test system: L1210 leukemia ip in BDF1 mice, survival T/C
Experiment: NCI In Vivo Anticancer Drug Screen. Data for tumor model L1210 Leukemia (intraperitoneal) in B6D2F1 (BDF1) mice
Conditions: endpoint: mean survival time, higher = longer survival
Summary of the method: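 In this screen, tumor-bearing mice given compound are compared to those given vehicle, and their survival values are reported as a treated-to-control quotient.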

[1] = dose: 100.0 mg/kg/injection, schedule: Q01DX001 (ip), vehicle: saline
[2] = dose: 200.0 mg/kg/injection, schedule: Q01DX001 (ip), vehicle: saline
[3] = dose: 100.0 mg/kg/injection, schedule: Q04DX003 (ip), vehicle: saline with Tween-80
[4] = dose: 200.0 mg/kg/injection, schedule: Q04DX003 (ip), vehicle: saline with Tween-80
[5] = dose: 100.0 mg/kg/injection, schedule: Q04DX002 (ip), vehicle: Klucel (hydroxypropylcellulose) (HPC)
[6] = dose: 200.0 mg/kg/injection, schedule: Q04DX002 (ip), vehicle: Klucel (hydroxypropylcellulose) (HPC)
[7] = dose: 400.0 mg/kg/injection, schedule: Q04DX002 (ip), vehicle: Klucel (hydroxypropylcellulose) (HPC)
[8] = dose: 50.0 mg/kg/injection, schedule: Q04DX003 (ip), vehicle: saline
[9] = dose: 100.0 mg/kg/injection, schedule: Q04DX003 (ip), vehicle: saline
[10] = dose: 100.0 mg/kg/injection, schedule: Q04DX003 (ip), vehicle: Klucel (hydroxypropylcellulose) (HPC)
[11] = dose: 200.0 mg/kg/injection, schedule: Q04DX003 (ip), vehicle: Klucel (hydroxypropylcellulose) (HPC)
[12] = dose: 12.5 mg/kg/injection, schedule: Q01DX009 (ip), vehicle: saline with Tween-80
[13] = dose: 25.0 mg/kg/injection, schedule: Q01DX009 (ip), vehicle: saline with Tween-80
[14] = dose: 50.0 mg/kg/injection, schedule: Q01DX009 (ip), vehicle: saline with Tween-80

CCN(CC)C(C)(O)CN (centres undefined)
T/C [1]: 98 % of control
T/C [2]: 103 % of control

CCN(C(=O)Nc1cccc(Cl)c1)c1ccccc1C
T/C [3]: 93 % of control
T/C [4]: 88 % of control

CCOC(=O)CNc1cccc(F)c1C
T/C [5]: 104 % of control
T/C [6]: 104 % of control
T/C [7]: 115 % of control

Cn1cc[nH]c1=S
T/C (dose: 25.0 mg/kg/injection, schedule: Q04DX003 (ip), vehicle: saline): 114 % of control
T/C [8]: 90 % of control
T/C [1]: 110 % of control
T/C [9]: 98 % of control
T/C [2]: 107 % of control
T/C (dose: 400.0 mg/kg/injection, schedule: Q01DX001 (ip), vehicle: saline): 105 % of control

O=C(OC(c1ccccc1)c1ccccc1)C(CSC(c1ccccc1)(c1ccccc1)c1ccccc1)NC(c1ccccc1)(c1ccccc1)c1ccccc1 (centres undefined)
T/C [10]: 91 % of control
T/C [11]: 92 % of control

C1=CC2C1C1(Cc3ccccc3)N=NC2(Cc2ccccc2)C2C=CC21 (centres undefined)
T/C [5]: 97 % of control
T/C [6]: 94 % of control
T/C [7]: 87 % of control

C=CC(=O)[O][Pb]([CH2]C)([CH2]C)[CH2]C
T/C (dose: 12.5 mg/kg/injection, schedule: Q04DX002 (ip), vehicle: Klucel (hydroxypropylcellulose) (HPC)): 86 % of control

CCOC(=O)CN(C(=O)OCc1ccccc1)N(C)C(=O)OCc1ccccc1
T/C (dose: 25.0 mg/kg/injection, schedule: Q04DX003 (ip), vehicle: saline with Tween-80): 101 % of control
T/C (dose: 50.0 mg/kg/injection, schedule: Q04DX003 (ip), vehicle: saline with Tween-80): 94 % of control
T/C [3]: 101 % of control
T/C [4]: 97 % of control
T/C (dose: 400.0 mg/kg/injection, schedule: Q04DX003 (ip), vehicle: saline with Tween-80): 101 % of control

CCS(=O)(=O)Nc1cccc(Nc2c3cccc(C)c3nc3c(C)cccc23)c1OC
T/C (dose: 5.5 mg/kg/injection, schedule: Q01DX009 (ip), vehicle: saline): 122 % of control
T/C (dose: 11.0 mg/kg/injection, schedule: Q04DX003 (ip), vehicle: saline): 113 % of control
T/C [12]: 155 % of control
T/C (dose: 12.5 mg/kg/injection, schedule: Q01DX009 (sc), vehicle: Klucel (hydroxypropylcellulose) (HPC)): 112 % of control
T/C (dose: 16.0 mg/kg/injection, schedule: Q04DX003 (ip), vehicle: saline): 114 % of control
T/C [13]: 181 % of control
T/C (dose: 25.0 mg/kg/injection, schedule: Q01DX009 (sc), vehicle: Klucel (hydroxypropylcellulose) (HPC)): 123 % of control
T/C [14]: 103 % of control
T/C [8]: 157 % of control
T/C [9]: 170 % of control

CC(C)(C)S(=O)(=O)c1nc2ccccc2s1
T/C [10]: 93 % of control
T/C [11]: 107 % of control
T/C (dose: 400.0 mg/kg/injection, schedule: Q04DX003 (ip), vehicle: Klucel (hydroxypropylcellulose) (HPC)): 90 % of control

COc1cc(Cl)ccc1C
T/C [14]: 98 % of control
T/C (dose: 100.0 mg/kg/injection, schedule: Q01DX009 (ip), vehicle: saline with Tween-80): 93 % of control
T/C [3]: 93 % of control
T/C (dose: 200.0 mg/kg/injection, schedule: Q01DX009 (ip), vehicle: saline with Tween-80): 90 % of control
T/C [4]: 89 % of control

NC(CSS(=O)(=O)O)=NCc1cccs1
T/C [12]: 103 % of control
T/C [13]: 96 % of control
